Marks after values point to notes of the source that are not given here.
Columns and labels:
Format in all cases: in vivo
Amaranthus retroflexus [1] = assay: greenhouse post-emergence treatment, AMARE; settings: scale 0-100
Excerpt: (§1) The culture containers used were plastic flowerpots containing loamy sand with approximately 3.0% of humus as the substrate. The seeds of the test plants were sown separately for each species.
(§2) For the post-emergence treatment, the test plants were first grown to a height of 3 to 15 cm, depending on the plant habit, and only then treated with the active ingredients which had been suspended or emulsified in water. For this purpose, the test plants were either sown directly and grown in the same containers, or they were first grown separately as seedlings and transplanted into the test containers a few days prior to treatment.
(§3) Depending on the species, the plants were kept at 10-25° C. or 20-35° C. The test period extended over 2 to 4 weeks. During this time, the plants were tended, and their response to the individual treatments was evaluated.
(§4) Evaluation was carried out using a scale from 0 to 100. 100 means no emergence of the plants, or complete destruction of at least the aerial moieties, and 0 means no damage, or normal course of growth. A good herbicidal activity is given at values of at least 70 and a very good herbicidal activity is given at values of at least 85.
(§5) The plants used in the greenhouse experiments belonged to the following species:
(§6) Following representative compounds of formula I according to Table 9 were used in post-emergence treatments in greenhouse experiments (values labeled with * result from pre-emergence experiments): […]

Abutilon theophrasti = assay: greenhouse pre-emergence treatment, ABUTH; settings: pre-emergence (value labeled *), scale 0-100
Excerpt: as §1
(§7) For the pre-emergence treatment, the active ingredients, which had been suspended or emulsified in water, were applied directly after sowing by means of finely distributing nozzles. The containers were irrigated gently to promote germination and growth and subsequently covered with transparent plastic hoods until the plants had rooted. This cover caused uniform germination of the test plants, unless this has been impaired by the active ingredients.
as §3, §4, §5, §6

Chenopodium album = assay: greenhouse post-emergence treatment, CHEAL; settings: scale 0-100
Excerpt: as §1, §2, §3, §4, §5, §6

Echinochloa crus-galli = assay: greenhouse post-emergence treatment, ECHCG; settings: scale 0-100
Excerpt: as §1, §2, §3, §4, §5, §6

Amaranthus retroflexus [2] = assay: greenhouse pre-emergence treatment, AMARE; settings: pre-emergence (value labeled *), scale 0-100
Excerpt: as §1, §7, §3, §4, §5, §6

| SMILES | [%] damage to weed III (AMARE) (Amaranthus retroflexus [1]; 250 g/ha) | [%] damage to weed VII (ECHCG) (Echinochloa crus-galli; 250 g/ha) [%] | [%] damage to weed VI (CHEAL) (Chenopodium album; 250 g/ha) [%] | [%] damage to weed III (AMARE) (Amaranthus retroflexus [2]; 250 g/ha) | also measured |
| --- | --- | --- | --- | --- | --- |
| COc1c(Cl)cc(F)c(C(=O)Nc2nnnn2C)c1Cl [compound 9] | – | – | – | – | [%] damage to weed III (AMARE) (Amaranthus retroflexus [1]; 196 g/ha): 100%; [%] damage to weed I (ABUTH) (Abutilon theophrasti; 196 g/ha): 100* %; [%] damage to weed VI (CHEAL) (Chenopodium album; 196 g/ha): 100% |
| CCOc1c(Cl)cc(F)c(C(=O)Nc2nnnn2C)c1Cl [compound 18] | 85% | 98 | 100 | – | [%] damage to weed I (ABUTH) (Abutilon theophrasti; 250 g/ha): 100* % |
| CCOc1c(Cl)cc(F)c(C(=O)Nc2nnnn2CCOC)c1Cl [compound 19] | 100% | 100 | 100 | – | [%] damage to weed I (ABUTH) (Abutilon theophrasti; 250 g/ha): 100* % |
| CCCSc1c(Cl)cc(F)c(C(=O)Nc2nnnn2C)c1Cl [compound 21] | – | – | – | – | [%] damage to weed III (AMARE) (Amaranthus retroflexus [1]; 243 g/ha): 100%; [%] damage to weed I (ABUTH) (Abutilon theophrasti; 243 g/ha): 100* %; [%] damage to weed VII (ECHCG) (Echinochloa crus-galli; 243 g/ha): 100%; [%] damage to weed VI (CHEAL) (Chenopodium album; 243 g/ha): 100% |
| CCCSc1c(Cl)cc(F)c(C(=O)Nc2ncnn2C)c1Cl [compound 22] | 100: % | 100 | 100 | 80* % | – |
| CCC[S+]([O-])c1c(Cl)cc(F)c(C(=O)Nc2nnnn2C)c1Cl (stereo not drawn) [compound 23] | 100; % | 98 | 100 | 98* % | – |
| CCCS(=O)(=O)c1c(Cl)cc(F)c(C(=O)Nc2nnnn2C)c1Cl [compound 24] | 100; % | 100 | 100 | 100* % | – |
| CCCS(=O)(=O)c1c(Cl)cc(F)c(C(=O)Nc2ncnn2C)c1Cl [compound 26] | – | – | – | – | [%] damage to weed III (AMARE) (Amaranthus retroflexus [2]; 500 g/ha): 98* %; [%] damage to weed III (AMARE) (Amaranthus retroflexus [1]; 500 g/ha): 100; %; [%] damage to weed VII (ECHCG) (Echinochloa crus-galli; 500 g/ha): 98%; [%] damage to weed VI (CHEAL) (Chenopodium album; 500 g/ha): 100% |
| CCC[S+]([O-])c1c(Cl)cc(F)c(C(=O)Nc2ncnn2C)c1Cl (stereo not drawn) [compound 27] | – | – | – | – | [%] damage to weed III (AMARE) (Amaranthus retroflexus [2]; 244 g/ha): 85* %; [%] damage to weed III (AMARE) (Amaranthus retroflexus [1]; 244 g/ha): 100; %; [%] damage to weed VII (ECHCG) (Echinochloa crus-galli; 244 g/ha): 98%; [%] damage to weed VI (CHEAL) (Chenopodium album; 244 g/ha): 100% |
| CCn1nnnc1NC(=O)c1c(F)cc(Cl)c([S+](C)[O-])c1Cl (stereo not drawn) [compound 32] | 100; % | 100 | 100 | 100* % | – |
| CCSc1c(Cl)cc(Cl)c(C(=O)Nc2nnnn2C)c1Cl [compound 41] | 100; % | 100 | 100 | 100* % | – |
| CC[S+]([O-])c1c(Cl)cc(Cl)c(C(=O)Nc2nnnn2C)c1Cl (stereo not drawn) [compound 60] | – | – | – | – | [%] damage to weed III (AMARE) (Amaranthus retroflexus [2]; 500 g/ha): 100* %; [%] damage to weed III (AMARE) (Amaranthus retroflexus [1]; 500 g/ha): 100; %; [%] damage to weed VII (ECHCG) (Echinochloa crus-galli; 500 g/ha): 98%; [%] damage to weed VI (CHEAL) (Chenopodium album; 500 g/ha): 100% |
| CCSc1c(Cl)cc(F)c(C(=O)Nc2nnnn2CC)c1Cl [compound 64] | – | – | – | – | [%] damage to weed III (AMARE) (Amaranthus retroflexus [2]; 500 g/ha): 100* %; [%] damage to weed III (AMARE) (Amaranthus retroflexus [1]; 500 g/ha): 100; %; [%] damage to weed VII (ECHCG) (Echinochloa crus-galli; 500 g/ha): 100%; [%] damage to weed VI (CHEAL) (Chenopodium album; 500 g/ha): 100% |
| COCCOc1c(Cl)cc(F)c(C(=O)Nc2nnnn2CCOC)c1Cl [compound 68] | 100; % | 100 | 100 | 100* % | – |
| COCCOc1c(Cl)cc(F)c(C(=O)Nc2nnnn2C)c1Cl [compound 70] | 98% | 95 | 100 | – | [%] damage to weed I (ABUTH) (Abutilon theophrasti; 250 g/ha): 100* % |
| CCn1nnnc1NC(=O)c1c(F)cc(Cl)c(OCCOC)c1Cl [compound 71] | 98% | 80 | 100 | – | [%] damage to weed I (ABUTH) (Abutilon theophrasti; 250 g/ha): 100* % |
| CCS(=O)(=O)c1c(Cl)cc(Cl)c(C(=O)Nc2nnnn2C)c1Cl [compound 73] | 100; % | 100 | 100 | 98* % | – |

| SMILES | [%] damage to weed III (AMARE) (Amaranthus retroflexus [1]; 250 g/ha) | [%] damage to weed VII (ECHCG) (Echinochloa crus-galli; 250 g/ha) [%] | [%] damage to weed VI (CHEAL) (Chenopodium album; 250 g/ha) [%] | [%] damage to weed III (AMARE) (Amaranthus retroflexus [2]; 250 g/ha) | also measured |
| --- | --- | --- | --- | --- | --- |
| COCCn1nnnc1NC(=O)c1c(F)cc(Cl)c([S+](C)[O-])c1Cl (stereo not drawn) [compound 74] | – | – | – | – | [%] damage to weed III (AMARE) (Amaranthus retroflexus [1]; 110 g/ha): 100%; [%] damage to weed I (ABUTH) (Abutilon theophrasti; 110 g/ha): 98* %; [%] damage to weed VII (ECHCG) (Echinochloa crus-galli; 110 g/ha): 100%; [%] damage to weed VI (CHEAL) (Chenopodium album; 110 g/ha): 100% |
| COCCn1nnnc1NC(=O)c1c(Cl)cc(Cl)c(SC)c1Cl [compound 75] | 100; % | 100 | 100 | 100* % | – |
| CC[S+]([O-])c1c(Cl)cc(F)c(C(=O)Nc2nnnn2CCOC)c1Cl (stereo not drawn) [compound 77] | – | – | – | – | [%] damage to weed III (AMARE) (Amaranthus retroflexus [2]; 125 g/ha): 100* %; [%] damage to weed III (AMARE) (Amaranthus retroflexus [1]; 125 g/ha): 100; %; [%] damage to weed VII (ECHCG) (Echinochloa crus-galli; 125 g/ha): 100%; [%] damage to weed VI (CHEAL) (Chenopodium album; 125 g/ha): 100% |
| CCSc1c(Cl)cc(F)c(C(=O)Nc2nnnn2CCOC)c1Cl [compound 79] | 100; % | 100 | 100 | 100* % | – |
| CSc1ccc(Cl)c(C(=O)Nc2nnnn2C)c1Cl [compound 82] | 100; % | 98 | 100 | 100* % | – |
| COCCn1nnnc1NC(=O)c1c(Cl)ccc(SC)c1Cl [compound 83] | 100; % | 100 | 100 | 100* % | – |
| COCCOc1ccc(Cl)c(C(=O)Nc2ncnn2C)c1Cl [compound 85] | 100% | 85 | 100 | – | – |
| CCSc1ccc(Cl)c(C(=O)Nc2ncnn2C)c1Cl [compound 87] | 100; % | 98 | 100 | 98* % | – |
| CCSc1ccc(Cl)c(C(=O)Nc2nnnn2C)c1Cl [compound 88] | – | 100 | 100 | – | – |
| COCCn1nnnc1NC(=O)c1c(F)cc(Cl)c(OCCC(F)(F)F)c1Cl [compound 89, 2,4-Dichloro-6-fluoro-N-[1-(2-methoxyethyl)tetrazol-5-yl]-3-(3,3,3-trifluoropropoxy)-benzamide] | 100; % | 100 | 100 | 100* % | – |
| Cn1ncnc1NC(=O)c1c(F)cc(Cl)c(OCCC(F)(F)F)c1Cl [compound 90, 2,4-Dichloro-6-fluoro-N-(2-methyl-1,2,4-triazol-3-yl)-3-(3,3,3-trifluoropropoxy)benzamide] | – | 90 | 100 | – | – |
| Cn1nnnc1NC(=O)c1c(F)cc(Cl)c(OCCC(F)(F)F)c1Cl [compound 91, 2,4-Dichloro-6-fluoro-N-(1-methyltetrazol-5-yl)-3-(3,3,3-trifluoropropoxy)benzamide] | 100; % | 100 | 100 | 100* % | – |
| CCn1nnnc1NC(=O)c1c(F)cc(Cl)c(OCCC(F)(F)F)c1Cl [compound 92, 2,4-Dichloro-N-(1-ethyltetrazol-5-yl)-6-fluoro-3-(3,3,3-trifluoropropoxy)benzamide] | 100; % | 100 | 100 | 100* % | – |
| CSc1c(F)cc(Cl)c(C(=O)Nc2nnnn2C)c1F [compound 95] | 100; % | 100 | 100 | 95* % | – |
| CCSc1c(F)cc(Cl)c(C(=O)Nc2nnnn2C)c1F [compound 97] | 100; % | 100 | 100 | 100* % | – |
| COCCn1nnnc1NC(=O)c1c(Cl)cc(F)c(SC)c1F [compound 99] | 100; % | 100 | 100 | 100* % | – |
| Cn1ncnc1NC(=O)c1c(F)cc(Cl)c([S+](C)[O-])c1Cl (stereo not drawn) [cpd. 5] | 100% | 98 | 100 | – | – |
